This is an account of results in patent US20140005271A1, “PHARMACEUTICAL COMPOSITION FOR PREVENTING OR TREATING INFLAMMATORY DISEASES OR INFECTIOUS DISEASES, CONTAINING m-3M3FBS, WHICH IS ACTIVATOR OF PHOSPHOLIPASE C, AS ACTIVE INGREDIENT” (priority 2011, published 2014).

Each structure is given as a SMILES string.

Assay [1] concerns mouse neutrophils. Kind of assay: LPS-induced proinflammatory cytokine secretion in neutrophils by ELISA. The class given is cell-based. The following applies: LPS 100 ng/ml, m-3M3FBS 10 μM, versus LPS alone. The method, then: Mouse neutrophils (3×10^6 cells/0.3 ml) were incubated in a 24-well plate containing 10% FBS-contained RPMI 1640 medium, and placed in 5% CO2 incubator at 37° C. Then, the neutrophils were incubated with LPS (100 ng/ml) for 6 hours in the presence or absence of m-3M3FBS (10 μM). The LPS (100 ng/ml) was treated to the cells after 30 minutes, the cell-free supernatant was harvested by centrifugation, and the production of IL-1 or TNF-α was detected by ELISA (BD Biosciences Pharmingen) according to the manufacturer's instructions.
(An ELISA detects its analyte on a solid surface through an enzyme-linked reagent.)

For assay [2], the system named is mouse neutrophils with opsonized E. coli. Kind of assay: Microbicidal action of neutrophils on ingested opsonized E. coli. Format: cell-based. The method, then: Neutrophils were incubated for 1 hour at a 13-mm plastic cover slip on a 60-mm plastic petri dish (1×10^6 neutrophils/cover slip) at 37° C. Unattached neutrophils were removed by PBS washing, and the attached neutrophils were incubated with 10^6 of opsonized E. coli for 20 minutes. Microbes ingested by neutrophils were incubated for 30 minutes at various concentrations of m-3M3FBS or vehicles, and changes of the microbes before and after incubation were examined. A percentage of dead microbes was calculated by 100×(1−the number of CFU after m-3M3FBS stimulation/the number of CFU before m-3M3FBS stimulation).

The next assay concerns splenocytes. Kind of assay: TUNEL assay of CLP-induced apoptosis. The following applies: 1.5 mg/kg; FIG. 4C. Format: in vivo, mouse. On the procedure:
The TUNEL assay was performed on tissue fragments embedded in paraffin, and the fragments were subjected to permeation of Triton X-100 at 4° C. for 2 minutes, and immersed in a TdT enzyme and a digoxigenin-dUTP reaction buffer (TUNEL) reagent for 60 minutes at 37° C. A percentage of apoptotic cells (TUNEL-positive cells) was determined by counting 500 splenocytes, which were observed using an optical microscope.

For assay [3], the system named is mouse neutrophils. Kind of assay: Production of H2O2 in neutrophils. The class given is cell-based. On the procedure:
Neutrophils of mice were isolated from peripheral blood using Histopaque-1077 solvent (Sigma), and neutrophils isolated from a normal mouse were stimulated by treating various concentrations of m-3M3FBS for 10 minutes in the presence of cytochalasin B (5 μm). […] H2O2 obtained from a supernatant was analyzed using H2O2 Molecular Probes.

Assay [4] relates to bacteria in the peritoneal fluid. The assay is described as follows: In vivo microbicidal action: bacterial colonies (CFU) in peritoneal lavage fluid after CLP. The arrangement: species or system mouse. As to conditions: 1.5 mg/kg; 24 hours after CLP; FIG. 3A. On the procedure:
24 hours after the CLP, peritoneal lavage fluid was harvested, and was incubated overnight in a blood-agar base plate (Trypticase Soy Agar Deeps, Becton Dickinson) at 37° C. CFUs were estimated by counting bacteria colonies formed in the blood-agar base plate (Trypticase Soy Agar Deeps, Becton Dickinson).

For a further assay, the system named is CLP mouse models. The assay is described as follows: Survival/mortality of CLP (cecal ligation and puncture) sepsis mice. As to conditions: for effect on the m-3M3FBS-induced survival rate: treated within the period of injecting m-3M3FBS, 1.5 mg/kg, FIG. 1C. The class given is in vivo. On the procedure: (§1) Male WT ICR mice were used as test models. All tests involving animals were performed according to the guidelines, and received the approval of Institutional Review Committee for Animal Care and Use from Dong-a University. For cecal ligation and puncture (CLP), the mice were anesthetized by intraperitoneal injection of pentothal sodium (50 mg/kg), and the cecum was exposed through midline incision of the abdomen. The cecum was ligated at a terminal end of the ileocecal valve, and the surface was perforated twice, or once to measure cytokine production using a 22-gauge needle, and the abdomen was closed. The control (sham) CLP mice underwent the same process as described above, but the cecum was not ligated or punctured.

The subject of another assay is splenocytes of mice. The assay is described as follows: Direct in vitro production of IFN-γ and IL-12 by ELISA. The class given is cell-based, mouse. The following applies: various concentrations, 3 hours.
The subject of assay [5] is thymocytes and splenocytes. Kind of assay: CLP-induced apoptosis of thymocytes and splenocytes (H&E staining, counting of living cells). The class given is in vivo, mouse. The following applies: 1.5 mg/kg; 24 hours; FIGS. 4A and B. On the procedure:
as §1

The next assay relates to caspase-3. Kind of assay: Immunostaining of fragmented caspase-3 in splenocytes of CLP mice. Also noted: species or system mouse. As to conditions: 1.5 mg/kg in vivo; FIG. 4D. The method, then:
Immunostaining was performed on the paraffin-embedded tissue fragments. The fragments were incubated with primary antibodies (Cell Signal transduction) in response to fragmented capase-3, and stained with fluorescent pigment-fused secondary antibodies.

In assay [6] the test system is cytokines in the peritoneal fluid. Kind of assay: CLP-induced cytokines in peritoneal fluid by ELISA. The class given is in vivo, mouse. As to conditions: 1.5 mg/kg, 4 to 72 hours after CLP. The method, then:
To detect production of CLP-inducing cytokines in peritoneal lavage fluid, m-3M3FBS was treated 2, 14, 26, or 38 hours after CLP. The peritoneal lavage fluid was harvested at various points of time from 4 to 72 hours after the CLP, and expression of cytokines in the peritoneal fluid was detected by ELISA (BD Biosciences Pharmingen).

The test system of a further assay is lung of the CLP mouse. Kind of assay: Inflammation of the lung in CLP mice (hematoxylin and eosin staining, W/D weight ratio). The class given is in vivo. As to conditions: 1.5 mg/kg. On the procedure: The degree of pulmonary edema was identified by measuring a wet-to-dry (W/D) ratio of the lung. The wet weight of the harvested cells was measured, and the cells were placed in an oven at 60° C. for 48 hours, and the dry weight of the cells was measured, thereby obtaining the W/D ratio.
2 hours after the mice underwent CLP, PBS or m-3M3FBS was administered at a concentration of 1.5 mg/kg. 24 hours after the surgery, the mice were euthanized, and the lung was fixed, cut, and stained with hematoxylin and eosin to perform morphological analysis.

As for `Cc1cc(C)c(S(=O)(=O)Nc2cccc(C(F)(F)F)c2)c(C)c1` [m-3M3FBS], the “level of IL-1β after LPS treatment” value in the assay on mouse neutrophils [1] (FIG. 6A) is “decreased”. In addition, the “level of TNF-α after LPS treatment” value with mouse neutrophils [1] (FIG. 6B) is “decreased”. Besides, in the assay on mouse neutrophils [1] (FIG. 6C), the “level of IL-6 after LPS treatment” value is “decreased”. In addition, the “microbicidal action of the neutrophils” value in assay [2] (1 to 50 μm m-3M3FBS, FIG. 3B) is recorded as “significantly increased in a direction proportional to the concentration”. Also, the “CLP-induced apoptosis by DNA fragmentation assay (TUNEL)” value with splenocytes is on record as “significantly inhibited”. Also, the “production of H2O2 in the neutrophils” value with mouse neutrophils [3] (1 to 50 μm m-3M3FBS, FIG. 3D) is “increased the production of H2O2 in the neutrophils in a direction proportional to the concentration”. Also, in [4], the “decrease in number of colonies of bacteria in the abdominal cavity” value worked out at 55%. Also, in the assay on CLP mouse models (1.5 mg/kg 2 hours after CLP, further three or four times at 12 hour intervals, FIG. 1B), the “survival rate by injection frequency” value is “significantly improved”. Further, the “survival rate of the mice compared to vehicle-injected control” value in the assay on CLP mouse models (0.9 or 1.5 mg/kg injected, FIG. 1A) is listed as “significantly increased”. The “mortality of the mice after CLP” value in the assay on CLP mouse models (various concentrations injected after CLP, FIG. 1A) is “significant decrease in the mortality”. For the same molecule, in the assay on splenocytes of mice (FIG. 6D), the “production of IFN-γ” value is given as “increased”. For the same molecule, the “production of IL-12” value with splenocytes of mice (FIG. 6E) is recorded as “increased”. Moreover, in assay [5], the “CLP-induced apoptosis of the thymocytes and splenocytes” value is reported as “significantly inhibited”. Further, in the assay with caspase-3, the “activation of CLP-induced caspase-3” value is listed as “significantly inhibited”. For the same molecule, the “level of IL-1β in peritoneal fluid” value in [6] (FIG. 5A) is “significantly decreased”. Also, the “level of TNF-α in peritoneal fluid” value in [6] (FIG. 5B) is recorded as “significantly decreased”. Besides, the “level of IL-12p70 in peritoneal fluid” value in assay [6] (FIG. 5C) is “significantly increased”. In addition, the “level of IFN-γ in peritoneal fluid” value in [6] (FIG. 5D) is “significantly increased”. For the same molecule, in the assay with lung of the CLP mouse (24 hours after CLP, FIG. 2B), the “W/D weight ratio of the lung” value is on record as “significantly decreased”. Besides, in the assay with lung of the CLP mouse (hematoxylin and eosin staining 24 hours after surgery, FIG. 2A), the “lung inflammation symptoms (congestion, extensive thrombotic lesions)” value is recorded as “significantly decreased”.

Consider `COc1ccc2c(c1)CC[C@@H]1[C@@H]2CC[C@]2(C)[C@@H](NCCCCCCN3C(=O)C=CC3=O)CC[C@@H]12` [U-73122, reference compound], for which, in assay [2] (neutrophils preincubated with the inhibitor (10 μM), then m-3M3FBS added, FIG. 3C), the “effect on m-3M3FBS-induced microbicidal action” value is recorded as “completely prevented”. In addition, in the assay with mouse neutrophils [3] (neutrophils preincubated with the inhibitor (10 μm), FIG. 3E), the “effect on m-3M3FBS-induced production of H2O2” value is on record as “significantly decreased”. For the same molecule, in the assay with CLP mouse models, the “effect on the m-3M3FBS-induced survival rate” value is on record as “completely prevented the increase in the m-3M3FBS-induced survival rate”.

With `COc1ccc2c(c1)CC[C@@H]1[C@@H]2CC[C@]2(C)[C@@H](NCCCCCCN3C(=O)CCC3=O)CC[C@@H]12` [U-73343, reference compound], the “effect on the m-3M3FBS-induced survival rate” value in the assay with CLP mouse models was “did not”.
